In US20240217978A1 (CHONG KUN DANG PHARMACEUTICAL CORP., priority 2021, published 2024) one finds IC50 data, which are given here for 27 molecules.

Sequence of human adenosine A2a receptor (P29274 whole entry): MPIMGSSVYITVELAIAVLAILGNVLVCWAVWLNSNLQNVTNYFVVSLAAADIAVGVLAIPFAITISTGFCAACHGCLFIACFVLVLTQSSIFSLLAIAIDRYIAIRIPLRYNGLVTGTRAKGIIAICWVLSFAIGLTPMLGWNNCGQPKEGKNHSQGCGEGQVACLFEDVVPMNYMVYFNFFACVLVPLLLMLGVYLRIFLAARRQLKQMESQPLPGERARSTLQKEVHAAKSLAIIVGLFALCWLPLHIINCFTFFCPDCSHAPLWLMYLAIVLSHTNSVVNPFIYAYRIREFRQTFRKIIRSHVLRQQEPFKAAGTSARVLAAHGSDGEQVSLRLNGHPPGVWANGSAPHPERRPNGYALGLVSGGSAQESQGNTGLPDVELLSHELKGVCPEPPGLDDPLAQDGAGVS

The test deals with human adenosine A2a receptor (Homo sapiens (Human), UniProt P29274). As to the kind of experiment: A2a receptor binding affinity, [3H]-NECA radioligand binding test. The following applies: [3H]-NECA 37 nM; membrane from HEK-293 cells transfected with human adenosine A2a receptor. The method, boiled down:
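IC50 values (μM) come from displacement of [3H]-NECA, used at 37 nM final, on human A2a receptor membranes from transfected HEK-293 cells. Incubation lasted one hour at room temperature in Tris/MgCl2/EDTA buffer, pH 7.4; filter-bound radioactivity was counted by scintillation.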
`Nc1nc(N2CCC[C@H]2C(=O)N2CCC(C(=O)Nc3cccc(C(F)F)c3)CC2)nc2nc(-c3ccco3)nn12` [Example 132, 1-((7-amino-2-(furan-2-yl)-[1,2,4]triazolo[1,5-a][1,3,5]triazin-5-yl)-L-prolyl)-N-(3-(difluoromethyl)phenyl)piperidin-4-carboxamide] gave an IC50 of 11 nM.
`CCC[C@H](Nc1nc(N)n2nc(-c3ccco3)nc2n1)C(=O)N1CCN(c2ccc(F)cc2F)CC1` [Example 163, (S)-2-((7-amino-2-(furan-2-yl)-[1,2,4]triazolo[1,5-a][1,3,5]triazin-5-yl)amino)-1-(4-(2,4-difluorophenyl)piperazin-1-yl)pentan-1-one]: the IC50 came to 0.5 nM.
As to `CCC1CCC(N2CCN(C(=O)[C@@H]3CCCN3c3nc(N)n4nc(-c5ccco5)nc4n3)CC2)CC1` (stereo partly drawn) [Example 152, (S)-(1-(7-amino-2-(furan-2-yl)-[1,2,4]triazolo[1,5-a][1,3,5]triazin-5-yl)pyrrolidin-2-yl)(4-(4-ethylcyclohexyl)piperazin-1-yl) methanone], the IC50 is 19 nM.
`Nc1nc(N[C@H](C(=O)N2CCN(c3ccc(F)cc3F)CC2)C2CCC2)nc2nc(-c3ccco3)nn12` [Example 169, (S)-2-((7-amino-2-(furan-2-yl)-[1,2,4]triazolo[1,5-a][1,3,5]triazin-5-yl)amino)-2-cyclobutyl-1-(4-(2,4-difluorophenyl)piperazin-1-yl)ethan-1-one]: the half-maximal inhibitory concentration (IC50) turned out to be 0.1 nM.
`Nc1nc(N[C@H](C(=O)N2CCN(CC(F)F)CC2)C2CC2)nc2nc(-c3ccco3)nn12` [Example 354, (S)-2-((7-amino-2-(furan-2-yl)-[1,2,4]triazolo[1,5-a][1,3,5]triazin-5-yl)amino)-2-cyclopropyl-1-(4-(2,2-difluoroethyl)piperazin-1-yl)ethan-1-one] displayed an IC50 of 22 nM.
In turn, `CN1CCN(c2cccc(C(=O)N3CCN(C(=O)[C@@H]4CCCN4c4nc(N)n5nc(-c6ccco6)nc5n4)CC3)c2)CC1` [Example 82, (4-((7-amino-2-(furan-2-yl)-[1,2,4]triazolo[1,5-a][1,3,5]triazin-5-yl)-L-prolyl)piperazin-1-yl)(3-(4-methylpiperazin-1-yl)phenyl)methanone] showed an IC50 of 6 nM.
`Nc1nc(N2CCC[C@H]2C(=O)N2CCN(c3ccccc3C(F)(F)F)CC2)nc2nc(-c3ccco3)nn12` [Example 150, (S)-(1-(7-amino-2-(furan-2-yl)-[1,2,4]triazolo[1,5-a][1,3,5]triazin-5-yl)pyrrolidin-2-yl)(4-(2-(trifluoromethyl)phenyl)piperazin-1-yl)methanone]: the IC50 was found to be 0.1 nM.
`COc1ccccc1N1CCN(C(=O)[C@@H]2CCCN2c2nc(N)n3nc(-c4ccco4)nc3n2)CC1` [Example 122, (S)-(1-(7-amino-2-(furan-2-yl)-[1,2,4]triazolo[1,5-a][1,3,5]triazin-5-yl)pyrrolidin-2-yl)(4-(2-methoxyphenyl)piperazin-1-yl)methanone]: the IC50 is 19 nM.
The result for `Cc1ccc(-c2nc3nc(N4CCC[C@H]4C(=O)N4CCN(c5ccccc5)CC4)nc(N)n3n2)o1` [Example 199, (S)-(1-(7-amino-2-(5-methylfuran-2-yl)-[1,2,4]triazolo[1,5-a][1,3,5]triazin-5-yl)pyrrolidin-2-yl)(4-phenylpiperazin-1-yl)methanone] reads 2 nM; that for `C[C@H](Nc1nc(N)n2nc(-c3ccco3)nc2n1)C(=O)N1CCN(CC(C)(C)O)CC1` [Example 349, (S)-2-((7-amino-2-(furan-2-yl)-[1,2,4]triazolo[1,5-a][1,3,5]triazin-5-yl)amino)-1-(4-(2-hydroxy-2-methylpropyl)piperazin-1-yl)propan-1-one], 12.2 nM.
For the molecule `Cc1ccc(-c2nc3nc(N4CCC[C@H]4C(=O)N4CCN(CC(F)F)CC4)nc(N)n3n2)o1` [Example 297, (S)-(1-(7-amino-2-(5-methylfuran-2-yl)-[1,2,4]triazolo[1,5-a][1,3,5]triazin-5-yl)pyrrolidin-2-yl)(4-(2,2-difluoroethyl)piperazin-1-yl)methanone], the IC50 amounted to 15 nM.
Take `Cc1ccc(-c2nc3nc(N4CCC[C@H]4C(=O)N4CCN(c5ccccc5)C(=O)C4)nc(N)n3n2)o1` [Example 198, 4-((7-amino-2-(5-methylfuran-2-yl)-[1,2,4]triazolo[1,5-a][1,3,5]triazin-5-yl)-L-prolyl)-1-phenylpiperazin-2-one]: the concentration for half-maximal inhibition (IC50) was 8 nM.
The result for `Nc1nc(N2CCC[C@H]2C(=O)N2CCC(N3CC(F)(F)C3)CC2)nc2nc(-c3ccco3)nn12` [Example 390, (S)-(1-(7-amino-2-(furan-2-yl)-[1,2,4]triazolo[1,5-a][1,3,5]triazin-5-yl)pyrrolidin-2-yl)(4-(3,3-difluoroazetidin-1-yl)piperidin-1-yl)methanone] reads 8 nM.
`C[C@@H]1CN(C(=O)c2ccccc2)CCN1C(=O)[C@@H]1CCCN1c1nc(N)n2nc(-c3ccco3)nc2n1` [Example 159, ((R)-4-((7-amino-2-(furan-2-yl)-[1,2,4]triazolo[1,5-a][1,3,5]triazin-5-yl)-L-prolyl)-3-methylpiperazin-1-yl)(phenyl)methanone] registered an IC50 of 9 nM.
Consider `CCCC[C@H](Nc1nc(N)n2nc(-c3ccco3)nc2n1)C(=O)N1CCN(CC(F)(F)F)CC1` [Example 213, (S)-2-((7-amino-2-(furan-2-yl)-[1,2,4]triazolo[1,5-a][1,3,5]triazin-5-yl)amino)-1-(4-(2,2,2-trifluoroethyl)piperazin-1-yl)hexan-1-one], for which the IC50 amounted to 7 nM.
Consider `COC[C@H](Nc1nc(N)n2nc(-c3ccco3)nc2n1)C(=O)N1CCN(CC(F)(F)F)CC1` [Example 306, (S)-2-((7-amino-2-(furan-2-yl)-[1,2,4]triazolo[1,5-a][1,3,5]triazin-5-yl)amino)-3-methoxy-1-(4-(2,2,2-trifluoroethyl)piperazin-1-yl)propan-1-one], for which the IC50 was determined as 30 nM.
The figure for `CC(C)[C@H](Nc1nc(N)n2nc(-c3ccco3)nc2n1)C(=O)N1CCN(Cc2ccc(F)cc2F)CC1` [Example 57, (S)-2-((7-amino-2-(furan-2-yl)-[1,2,4]triazolo[1,5-a][1,3,5]triazin-5-yl)amino)-1-(4-(2,4-difluorobenzyl)piperazin-1-yl)-3-methylbutan-1-one] is 7 nM; for `Nc1nc(N2CCC[C@H]2C(=O)N2CCN(c3ncc4c(n3)COC4)CC2)nc2nc(-c3ccco3)nn12` [Example 384, 2-(4-((7-amino-2-(furan-2-yl)-[1,2,4]triazolo[1,5-a][1,3,5]triazin-5-yl)-L-prolyl)piperazin-1-yl)-5,7-dihydrofuro[3,4-d]pyrimidine] it is 0.5 nM.
`CC1(C)C[C@@H](C(=O)N2CCN(CC(F)(F)F)CC2)N(c2nc(N)n3nc(-c4ccco4)nc3n2)C1` [Example 387, (S)-(1-(7-amino-2-(furan-2-yl)-[1,2,4]triazolo[1,5-a][1,3,5]triazin-5-yl)-4,4-dimethylpyrrolidin-2-yl)(4-(2,2,2-trifluoroethyl)piperazin-1-yl)methanone] came in with a half-inhibitory concentration (IC50) of 1 nM.
As for `C[C@H](Nc1nc(N)n2nc(-c3ccco3)nc2n1)C(=O)N1CCN(c2ncccn2)CC1` [Example 240, (S)-2-((7-amino-2-(furan-2-yl)-[1,2,4]triazolo[1,5-a][1,3,5]triazin-5-yl)amino)-1-(4-(pyrimidin-2-yl)piperazin-1-yl)propan-1-one], the 50% inhibitory concentration (IC50) worked out at 0.3 nM.
Turning to `CC(C)(O)CN1CCC(C2CCN(C(=O)[C@@H]3CCCN3c3nc(N)n4nc(-c5ccco5)nc4n3)CC2)CC1` [Example 244, (S)-(1-(7-amino-2-(furan-2-yl)-[1,2,4]triazolo[1,5-a][1,3,5]triazin-5-yl)pyrrolidin-2-yl)(1′-(2-hydroxy-2-methylpropyl)-[4,4′-bipiperidin]-1-yl)methanone], the IC50 came to 4 nM.
In turn, `Nc1nc(N[C@H](C(=O)N2CCN(CC(F)(F)C(F)F)CC2)C2CC2)nc2nc(-c3ccco3)nn12` [Example 359, (S)-2-((7-amino-2-(furan-2-yl)-[1,2,4]triazolo [1,5-a][1,3,5]triazin-5-yl)amino)-2-cyclopropyl-1-(4-(2,2,3,3-tetrafluoropropyl)piperazin-1-yl)ethan-1-one] came in with an IC50 of 5 nM.
The result for `Nc1nc(N2CCC[C@H]2C(=O)N2CCN(c3ncccc3C(F)(F)F)CC2)nc2nc(-c3ccco3)nn12` [Example 124, (S)-(1-(7-amino-2-(furan-2-yl)-[1,2,4]triazolo[1,5-a][1,3,5]triazin-5-yl)pyrrolidin-2-yl)(4-(3-(trifluoromethyl)pyridin-2-yl)piperazin-1-yl)methanone] reads 2 nM; that for `Cc1ccc(-c2nc3nc(N4CCC[C@H]4C(=O)N4CCN(c5nccs5)CC4)nc(N)n3n2)o1` [Example 202, 2-(4-((7-amino-2-(5-methylfuran-2-yl)-[1,2,4]triazolo[1,5-a][1,3,5]triazin-5-yl)-L-prolyl)piperazin-1-yl)thiazole], 7 nM; that for `Nc1nc(N2CCC[C@H]2C(=O)N2CCn3nc(C(F)(F)F)nc3C2)nc2nc(-c3ccco3)nn12` [Example 309], 21 nM.
The result for `CC(F)(F)CN1CCN(C(=O)[C@@H]2CCCN2c2nc(N)n3nc(-c4ccco4)nc3n2)C2(CC2)C1` [Example 343, (S)-(1-(7-amino-2-(furan-2-yl)-[1,2,4]triazolo[1,5-a][1,3,5]triazin-5-yl)pyrrolidin-2-yl)(7-(2,2-difluoropropyl)-4,7-diazaspiro[2.5]octan-4-yl)methanone] reads 9 nM; that for `CC(C)(F)CN1CCN(C(=O)[C@H](CO)Nc2nc(N)n3nc(-c4ccco4)nc3n2)CC1` [Example 232, (S)-2-((7-amino-2-(furan-2-yl)-[1,2,4]triazolo[1,5-a][1,3,5]triazin-5-yl)amino)-1-(4-(2-fluoro-2-methylpropyl)piperazin-1-yl)-3-hydroxypropan-1-one], 40 nM.

The IC50 is the concentration at which inhibition is half-maximal. A lower IC50 goes with inhibition by little substance.
